# Data as given in PubChem BioAssay AID200 (DTP/NCI, 2004).
# Where “and” joins values, the source holds several entries; their conditions need not be identical. Identical values can stand only once. Inconclusive results and toxic doses are left out.
# System: B6C3F1 mice, B16 melanoma ip, median survival T/C
# Experiment: NCI In Vivo Anticancer Drug Screen. Data for tumor model B16 Melanoma (intraperitoneal) in B6C3F1 mice
# Settings: endpoint: median survival time, schedule: Q01DX009 (ip), higher = longer survival
# Procedure, shortened: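 Antitumor effect was judged in mice with transplanted tumors by dividing the treated group's survival measure by that of vehicle controls.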
# [1] = dose: 12.5 mg/kg/injection, vehicle: saline
# [2] = dose: 25.0 mg/kg/injection, vehicle: saline
# [3] = dose: 50.0 mg/kg/injection, vehicle: saline
# [4] = dose: 100.0 mg/kg/injection, vehicle: saline
# [5] = dose: 200.0 mg/kg/injection, vehicle: saline
# [6] = dose: 400.0 mg/kg/injection, vehicle: saline
# [7] = dose: 6.25 mg/kg/injection, vehicle: saline with Tween-80
# [8] = dose: 12.5 mg/kg/injection, vehicle: saline with Tween-80
# [9] = dose: 25.0 mg/kg/injection, vehicle: saline with Tween-80
compound,measurement,setting,value
Cc1cn(C2CC(O)C(CO)O2)c(=O)[nH]c1=O (stereo unspecified),T/C,[1],99 % of control
same,T/C,[2],98 % of control
same,T/C,[3],102 % of control
same,T/C,[4],98 % of control
same,T/C,[5],98 % of control
same,T/C,[6],115 % of control
N=C1C=C[C@]2(O)C[C@H](Cl)CN12,T/C,"dose: 0.75 mg/kg/injection, vehicle: saline",102 % of control
same,T/C,"dose: 1.5 mg/kg/injection, vehicle: saline",111 % of control
same,T/C,"dose: 3.0 mg/kg/injection, vehicle: saline",119 % of control
same,T/C,"dose: 6.0 mg/kg/injection, vehicle: saline",104 % of control
CN(CCN(C)C(=O)CCOS(C)(=O)=O)C(=O)CCOS(C)(=O)=O,T/C,[1],113 % of control
same,T/C,[2],161 % of control
same,T/C,[3],203 % of control and 219 % of control
same,T/C,[4],213 % of control and 263 % of control
same,T/C,[5],102 % of control
CCCCCCCC(=O)O[C@H]1[C@H]2[C@@H](CC1(C)C)C(=O)[C@]13O[C@H]1C(=O)[C@]1(CO1)[C@]23C,T/C,"dose: 0.31 mg/kg/injection, vehicle: saline with Tween-80",98 % of control
same,T/C,"dose: 0.62 mg/kg/injection, vehicle: saline with Tween-80",90 % of control
same,T/C,"dose: 1.25 mg/kg/injection, vehicle: saline with Tween-80",86 % of control and 98 % of control
same,T/C,"dose: 2.5 mg/kg/injection, vehicle: saline with Tween-80",88 % of control
Nc1nc(N)c2cc(CNc3ccc(C(=O)NC(CC(=O)O)CC(=O)O)cc3)ccc2n1,T/C,"dose: 0.04 mg/kg/injection, vehicle: Klucel (hydroxypropylcellulose) (HPC)",87 % of control
same,T/C,"dose: 0.09 mg/kg/injection, vehicle: Klucel (hydroxypropylcellulose) (HPC)",89 % of control
same,T/C,"dose: 0.39 mg/kg/injection, vehicle: Klucel (hydroxypropylcellulose) (HPC)",87 % of control
same,T/C,[7],110 % of control
same,T/C,[8],90 % of control
same,T/C,[9],95 % of control
same,T/C,"dose: 50.0 mg/kg/injection, vehicle: saline with Tween-80",87 % of control
O=[N+]([O-])c1nccn1CC(O)CO (stereo unspecified),T/C,[1],91 % of control and 101 % of control
same,T/C,[2],102 % of control and 107 % of control
same,T/C,[3],95 % of control and 97 % of control
same,T/C,[4],111 % of control and 93 % of control
same,T/C,[5],95 % of control and 98 % of control
same,T/C,[6],91 % of control and 107 % of control
Nc1ccn(C2OC(CO)C(O)C2O)c(=O)n1 (stereo unspecified),T/C,[2],120 % of control
same,T/C,"dose: 2400.0 mg/kg/injection, vehicle: saline with Tween-80",110 % of control
CCC1=C[C@H]2CN(CCc3c([nH]c4ccccc34)[C@@](C(=O)OC)(c3cc4c(cc3OC)N(C)[C@H]3[C@@](O)(C(=O)NC)[C@H](OC(C)=O)[C@]5(CC)C=CCN6CC[C@]43[C@@H]65)C2)C1,T/C,"dose: 0.03 mg/kg/injection, vehicle: saline",117 % of control
same,T/C,"dose: 0.06 mg/kg/injection, vehicle: saline",118 % of control
same,T/C,"dose: 0.12 mg/kg/injection, vehicle: saline",170 % of control
same,T/C,"dose: 0.25 mg/kg/injection, vehicle: saline",182 % of control
same,T/C,"dose: 0.5 mg/kg/injection, vehicle: saline",238 % of control
CC(C)N1C(=O)C=C(c2ccc([N+](=O)[O-])cc2)C1=O,T/C,"dose: 3.12 mg/kg/injection, vehicle: saline with Tween-80",104 % of control
same,T/C,[7],111 % of control
same,T/C,[8],105 % of control
same,T/C,[9],105 % of control
CCCCNc1ccc2nnc(C)n2n1,T/C,"dose: 50.0 mg/kg/injection, vehicle: DMSO",98 % of control and 102 % of control
same,T/C,"dose: 100.0 mg/kg/injection, vehicle: DMSO",110 % of control and 92 % of control
same,T/C,"dose: 200.0 mg/kg/injection, vehicle: DMSO",92 % of control
COc1cc(C)c2c(c1C=O)Oc1c(c(C)c(O)c3c1C(O)OC3=O)OC2=O (stereo unspecified),T/C,"dose: 3.12 mg/kg/injection, vehicle: saline",94 % of control
same,T/C,"dose: 6.25 mg/kg/injection, vehicle: saline",100 % of control
same,T/C,[1],105 % of control
same,T/C,[2],98 % of control
same,T/C,[3],98 % of control
